Measurements as given in patent EP4782444A1, “CRYSTAL FORM OF PYRIMIDINE ANILINE COMPOUND, PREPARATION METHOD, AND USE” (TYK Medicines, Inc., priority 2023, dated 2025).
Where two headings read alike, the source gives them in different places. Each block holds one compound with its values, some of them ahead of it.

Assays:
[1] = Solid-state stability study (HPLC and XRPD analysis); assay type: physicochemical
in vivo = details: rat, po, 30 mg/kg
Experimental: (§1) SD rats received a single oral gavage administration of citrate crystalline form I, mesylate crystalline form I, and free base crystalline form I, respectively. Blood samples were collected at various time points to determine drug concentrations in rat plasma post administration of tested substance and calculate PK-related parameters.
(§2) The prepared test sample solutions were analyzed by the analytical department of the present test facility using LC-MS/MS.
(§3) Animals were fasted (≥10 h) with free access to water from the day before dosing. On the test day, rats were weighed respectively, marked at the tail, and blank blood samples were collected before administration. Blood was collected via tail vein.
(§4) 0.1 mL of whole blood was collected into EDTA-Na2 anticoagulant tubes, inverted 3-4 times to mix well, centrifuged at 10,000 g, 4 °C for 5 min to separate plasma, and stored at - 80 °C until analysis. Blood was collected via tail vein.
(§5) Plasma samples were analyzed by the analytical department of the test facility using LC-MS/MS.

[2] = Pharmacokinetic study in rats, single oral gavage; details: SD rats, 30 mpk
Experimental: as §1, §2, §3, §4, §5

[3] = 37 °C
[4] = test system: exon 20 insertion mutations of EGFR and HER2; details: reported clinical trial results; cited from earlier work
[5] = day 0 (baseline before storage), mean of 3 parallel experiments

Appearance ([1]; 25°C/60%RH, day 3): Unchanged | Crystalline Form ([1]; 25°C/60%RH, day 3, XRPD): Unchanged | Purity % ([1]; 25°C/60%RH, day 3, open vial): 98.68% | Appearance ([1]; 25°C/60%RH, day 7): Unchanged | Crystalline Form ([1]; 25°C/60%RH, day 7, XRPD): Unchanged | Purity % ([1]; 25°C/60%RH, day 7, open vial): 98.61% | Appearance ([1]; 25°C/95±5%RH, day 3): Unchanged | Crystalline Form ([1]; 25°C/95±5%RH, day 3, XRPD): Unchanged | Purity % ([1]; 25°C/95±5%RH, day 3, open vial): 98.66% | Appearance ([1]; 25°C/95±5%RH, day 7): Unchanged | Crystalline Form ([1]; 25°C/95±5%RH, day 7, XRPD): Unchanged | Purity % ([1]; 25°C/95±5%RH, day 7, open vial): 98.67% | Appearance ([1]; 40°C/75%RH, day 3): Unchanged | Crystalline Form ([1]; 40°C/75%RH, day 3, XRPD): Unchanged | Purity % ([1]; 40°C/75%RH, day 3, open vial): 98.66% | Appearance ([1]; 40°C/75%RH, day 7): Unchanged | Crystalline Form ([1]; 40°C/75%RH, day 7, XRPD): Unchanged | Purity % ([1]; 40°C/75%RH, day 7, open vial): 98.59% | Appearance ([1]; 60 °C, day 3): Unchanged | Crystalline Form ([1]; 60 °C, day 3, XRPD): Unchanged | Purity % ([1]; 60 °C, day 3, open vial): 98.68% | Appearance ([1]; 60 °C, day 7): Unchanged | Crystalline Form ([1]; 60 °C, day 7, XRPD): Unchanged | Purity % ([1]; 60 °C, day 7, open vial): 98.66% | Appearance ([1]; 80 °C, day 1): Unchanged | Crystalline Form ([1]; 80 °C, day 1, XRPD): Unchanged | Purity % ([1]; 80 °C, day 1, open vial): 98.71% | Appearance ([1]; 80 °C, day 3): Unchanged | Crystalline Form ([1]; 80 °C, day 3, XRPD): Unchanged | Purity % ([1]; 80 °C, day 3, open vial): 98.68% | Purity % [1, 5]: 98.74% | crystalline form and chemical purity ([1]; under the five storage conditions): did not change significantly | AUC(0-t) (in vivo): 1700 ng·h/mL | Cmax (in vivo): 126 ng/mL | Tmax (in vivo): 5 h | half-life (in vivo): 3.01 h | in vivo exposure in rats compared with free base crystalline form I [2]: higher | Solubility ([3]; FaSSIF, 0.5 h, 30 min): >5000 µg/mL | Solubility ([3]; FaSSIF, 2 h, 120 min): > 5000 µg/mL | Solubility ([3]; FaSSIF, 24 h, 1440 min): 3990 µg/mL | Solubility ([3]; FeSSIF, 0.5 h, 30 min): > 5020 µg/mL | Solubility ([3]; FeSSIF, 2 h, 120 min): > 5020 µg/mL | Solubility ([3]; FeSSIF, 24 h, 1440 min): > 5020 µg/mL | Solubility ([3]; H2O, 0.5 h, 30 min): 1910 µg/mL | Solubility ([3]; H2O, 2 h, 120 min): 1990 µg/mL | Solubility ([3]; H2O, 24 h, 1440 min): 2440 µg/mL | Solubility ([3]; SGF, 0.5 h, 30 min): > 5040 µg/mL | Solubility ([3]; SGF, 2 h, 120 min): > 5040 µg/mL | Solubility ([3]; SGF, 24 h, 1440 min): > 5040 µg/mL
Structure (SMILES): C=CC(=O)Nc1cc(Nc2ncc(C(=O)OC(C)C)c(-c3cn(C)c4ccccc34)n2)c(OC)cc1N(C)[C@@H]1[C@@H]2CN(C)C[C@@H]21 [Citrate crystalline form I]

Structure (SMILES): C=CC(=O)Nc1cc(Nc2ncc(C(=O)OC(C)C)c(-c3cn(C)c4ccccc34)n2)c(OC)cc1N(C)CCN(C)C [TAK-788]
objective response rate [4]: 43%

Appearance ([1]; 25°C/60%RH, day 3): Unchanged | Crystalline Form ([1]; 25°C/60%RH, day 3, XRPD): Unchanged | Purity % ([1]; 25°C/60%RH, day 3, open vial): 98.68% | Appearance ([1]; 25°C/60%RH, day 7): Unchanged | Crystalline Form ([1]; 25°C/60%RH, day 7, XRPD): Unchanged | Purity % ([1]; 25°C/60%RH, day 7, open vial): 98.66% | Appearance ([1]; 25°C/95±5%RH, day 3): Unchanged | Crystalline Form ([1]; 25°C/95±5%RH, day 3, XRPD): Unchanged | Purity % ([1]; 25°C/95±5%RH, day 3, open vial): 98.66% | Appearance ([1]; 25°C/95±5%RH, day 7): Unchanged | Crystalline Form ([1]; 25°C/95±5%RH, day 7, XRPD): Changed | Purity % ([1]; 25°C/95±5%RH, day 7, open vial): 98.67% | Appearance ([1]; 40°C/75%RH, day 3): Unchanged | Crystalline Form ([1]; 40°C/75%RH, day 3, XRPD): Unchanged | Purity % ([1]; 40°C/75%RH, day 3, open vial): 98.67% | Appearance ([1]; 40°C/75%RH, day 7): Unchanged | Crystalline Form ([1]; 40°C/75%RH, day 7, XRPD): Unchanged | Purity % ([1]; 40°C/75%RH, day 7, open vial): 98.64% | Appearance ([1]; 60 °C, day 3): Unchanged | Crystalline Form ([1]; 60 °C, day 3, XRPD): Unchanged | Purity % ([1]; 60 °C, day 3, open vial): 98.66% | Appearance ([1]; 60 °C, day 7): Unchanged | Crystalline Form ([1]; 60 °C, day 7, XRPD): Unchanged | Purity % ([1]; 60 °C, day 7, open vial): 98.68% | Appearance ([1]; 80 °C, day 1): Unchanged | Crystalline Form ([1]; 80 °C, day 1, XRPD): Unchanged | Purity % ([1]; 80 °C, day 1, open vial): 98.77% | Appearance ([1]; 80 °C, day 3): Unchanged | Crystalline Form ([1]; 80 °C, day 3, XRPD): Unchanged | Purity % ([1]; 80 °C, day 3, open vial): 98.66% | Purity % [1, 5]: 98.83% | changes under other conditions ([1]; storage conditions other than 25 °C /90±5%RH): no significant changes were observed | Solubility ([3]; FaSSIF, 0.5 h, 30 min): > 5030 µg/mL | Solubility ([3]; FaSSIF, 2 h, 120 min): > 5030 µg/mL | Solubility ([3]; FaSSIF, 24 h, 1440 min): 3450 µg/mL | Solubility ([3]; FeSSIF, 0.5 h, 30 min): > 5010 µg/mL | Solubility ([3]; FeSSIF, 2 h, 120 min): > 5010 µg/mL | Solubility ([3]; FeSSIF, 24 h, 1440 min): > 5010 µg/mL | Solubility ([3]; H2O, 0.5 h, 30 min): 1640 µg/mL | Solubility ([3]; H2O, 2 h, 120 min): 1620 µg/mL | Solubility ([3]; H2O, 24 h, 1440 min): 1840 µg/mL | Solubility ([3]; SGF, 0.5 h, 30 min): > 5010 µg/mL | Solubility ([3]; SGF, 2 h, 120 min): > 5010 µg/mL | Solubility ([3]; SGF, 24 h, 1440 min): > 5010 µg/mL
Structure (SMILES): C=CC(=O)Nc1cc(Nc2ncc(C(=O)OC(C)C)c(-c3cn(C)c4ccccc34)n2)c(OC)cc1N(C)[C@@H]1[C@@H]2CN(C)C[C@@H]21 [Maleate crystalline form II]
Crystalline Form ([1]; after 7 days, 25 °C /90±5%RH): transformed into an unstable hydrate of maleate
